How the values were obtained:
[1] = system: Diet Induced Obesity (DIO)-Mice; type: in vivo
Method: A total of 40 animals were used in the study. The animals were distributed into 5 groups (4 treated, 1 control group, all on high fat diet). Each group was composed of 8 animals.
4-OH was aliquoted and kept at 4° C. […] Mice from groups 4 and 5 were treated twice daily with 50 and 100 mg/kg of compound 65a. All groups were treated by oral gavage. Treatment commenced on Day 0 and ended on Day 7 (FIG. 37A). Body weights were measured daily.

[2] = system: diet induced obese (DIO) animals; assay: Fixed dose of 4-hydroxyisoleucine in diet induced obese (DIO) animals, 21 days; type: in vivo, C57BL/6 mice; settings: for Significance vs controls (P; body weight and body weight gain): 2 way ANOVA, Bonferroni
Method: C57BL/6 mice were fed a high fat diet (60% fat) for 6 weeks. […] This regime was continued for the remaining 21 day period and the dose given was not adjusted as the mice lost body weight. This method of dosing was designed to mimic the human situation when the quantity of drug given is not adjusted with progressive body weight loss. […] Statistical analysis of the data was performed using a 2 way ANOVA followed by Bonferroni comparisons. Food intake was measured daily and then combined over a 7 day period to calculate total consumption during each week of drug administration.

[3] = system: normal Wistar rats fed a high fat, high sucrose diet (HFHS); assay: Prevention of weight gain in rat model of diet-induced obesity (HFHS diet), 28 days; settings: 100 mg/kg twice daily oral; for weight gain: HFHS diet
Description: The aim of this study was to evaluate the effect of chronic administration of 4-hydroxyisoleucine (4-OH, Compound 14a) on food consumption, tissue weight, and body weight gain of normal Wistar rats fed a high fat, high sucrose diet (HFHS).
The animals were acclimated for 1 week and fed standard chow prior to the commencement of treatment, then for the 28 days of the treatment the animals were fed a high fat, high sucrose diet (HFHS). A total of 30 animals were used in the study. The animals were distributed into 3 groups each composed of 10 animals: 1 group fed HFHS with treatment, 1 untreated control group fed standard chow, and 1 untreated group fed HFHS. Animals were housed separately and food consumption was monitored daily.
For the four weeks of treatment, the test compounds were dissolved in reverse osmosis water. 4-hydroxyisoleucine (4-OH) was aliquoted and kept at 4° C. Treated animals received twice daily oral administration of 4-OH at 100 mg/kg per dose. Control animals received water twice daily.

[4] = system: lean mice subjected to a high fat diet; assay: Prevention of obesity in lean mice subjected to a high fat diet, 21 days; type: in vivo, C57BL/6 mice; settings: for transient increase of caloric intake: HFD
Description: C57BL/6 mice were fed a standard chow (LabDiet #5001; 12% of calories from fat) upon arrival and during the acclimation and pre-treatment periods. […] Treatment was initiated on the first day of experimentation (Day 1) and lasted 21 days. Animals from group 1 were fed the standard chow for the duration of the study and received water orally twice daily (ND: normal diet control). Mice from group 2 were given the high fat diet (HFD; 60% of calories from fat) starting on day 1 of experimentation and until day 21 of the study. These mice also received water by oral gavage and served as the high fat diet control (ND→HFD). Mice from group 3 and 4 were also fed the high fat diet upon start of treatment on day 1 and for the duration of the study but were treated orally twice daily with 100 and 150 mg/kg of 4-OH. From day 1 to day 21 of the study, body weight and food consumption were measured daily.

FABP4/ap2 = assay: RT-PCR gene expression in adipocytes of treated rats: FABP4/ap2; type: in vivo
Method: (§1) As the ex vivo studies on adipocytes indicated the lipolytic effect of drug was due to chronic exposure (see previous example), a role in gene regulation was assessed. RT-PCR was used to assess the expression of genes in the adipocytes from treated and control animals.

[5] = system: Wistar rat model of diet-induced obesity; assay: Body fat (DEXA) and white adipose tissue weight in Wistar rat model of diet-induced obesity; type: in vivo, Wistar rats; settings: 28 days
Description: A total of 60 animals were used in the study. The animals were distributed into 6 groups; 1 group was fed standard chow, 1 group was fed a high fat, high sucrose (HFHS) diet with 28 days treatment, 1 untreated control group was fed a HFHS diet, and 1 untreated group was fed a HFHS diet, but with caloric intake restricted to match the caloric intake of the 4-OH treated animals (pair-fed animals). A fifth group was fed a high fat, high sucrose (HFHS) diet with 28 days treatment and received an acute oral administration of 4-OH prior to experimentation on Day 29 of the study, and a sixth group was fed a HFHS diet, but with caloric intake restricted to match the caloric intake of the 4-OH treated animals receiving an acute oral administration of 4-OH on Day 29 of the study (pair-fed animals). Each group was composed of 10 animals. […] Immediately prior to commencement of treatment the animals were evaluated by DEXA scanning (Dual Energy X-ray Absortiometry) to determine the baseline percentage of body weight related to fat. For the four weeks of treatment, the test article (4-OH) was dissolved in reverse osmosis water. 4-OH was aliquoted and kept at 4° C. […] Untreated animals received water twice daily.

HSL = assay: RT-PCR gene expression in adipocytes of treated rats: HSL; type: in vivo
Method: as §1

obese mice = assay: Compound 22 and 4-hydroxyisoleucine on weight gain of obese mice, 21 days; type: in vivo, C57BL/6 mice; settings: p<0.01
Method: The objective of the following study was to evaluate the effect of the lactone form of 4-hydroxyisoleucine (compound 22) on the weight gain of obese mice. 40 C57BL/6 mice were fed a high fat diet (60% of calories from fat) for 6 weeks in order to induce obesity. Animals were than randomized to 5 study groups of 8 mice each according to their body weight values. Thereafter, the animals were treated orally twice daily with either the water vehicle, 50 mg/kg of compound 22, 100 mg/kg of compound 22, 50 mg/kg of 4-hydroxyisoleucine or 100 mg/kg of 4-hydroxyisoleucine. The treatment lasted 21 days and body weight of mice were determined daily from day 1 to day 21 of the study.

[6] = HFHS diet, treated for 4 weeks (28 days)

Structure (SMILES): C[C@@H]([C@H](C)O)[C@H](N)C(=O)O [Compound 14a, (2S,3R,4S)-4-Hydroxyisoleucine]
- tolerability of treatment ([1]; 50 and 100 mg/kg twice daily oral gavage, one week): well tolerated
- weight gain ([1]; 50 and 100 mg/kg twice daily, first week of treatment): moderation of weight gain was observed
- food consumption ([1]; first week of treatment): slight decrease in food consumption
- Significance vs controls (P; body weight and body weight gain) ([2]; 75 mg/kg, Days 7 to 21): P < 0.05
- Significance vs controls (P; body weight and body weight gain) ([2]; 100 mg/kg, Days 7 to 21): P < 0.05
- Significance vs controls (P; body weight and body weight gain) ([2]; 125 mg/kg, Days 6 to 21): P < 0.05
- body weight plateau ([2]; 150 mg/kg bid): approximately 30 gm
- body weight reduction ([2]; 150 mg/kg bid): 13 gm
- visual appearance of animals ([2]; 150 mg/kg bid, day 21): visually indisingishable from lean mice of the same age
- Significance vs controls (P; body weight and body weight gain) ([2]; 150 mg/kg, Days 5 to 21): P < 0.05
- body weight ([2]; 50, 75, 100, 125 and 150 mg/kg bid, oral, fixed dose, 21 days): dose-dependent reduction in body weight
- weight of fat tissues ([2]; end of treatment, epididymal fat (FIG. 17C)): concomitant reduction in the weight of fat tissues
- food intake ([2]; highest doses, each of the 3 weeks, p<0.05): reduction in food intake at the highest doses administered
- epididymal and peri-renal adipose tissue [3]: reduction of epididymal and peri-renal adipose tissue
- food consumption [3]: reduction in food consumption
- muscle, brown fat, and organ weight [3]: not affected
- tolerability of treatment [3]: well tolerated
- weight gain [3]: prevention of weight gain
- weight gain ([3]; listed as 4-OH): Moderation of weight gain was observed
- transient increase of caloric intake ([4]; 100 mg/kg): less pronounced
- transient increase of caloric intake ([4]; 150 mg/kg): completely abolished this increase of caloric intake
- caloric intake ([4]; 150 mg/kg, day 2 to day 6 of treatment): even lower than mice fed the standard chow
- weight gain induced by high fat feeding ([4]; 100 and 150 mg/kg orally twice daily, 21 days): completely prevented
- epididymal fat weight ([4]; 100 and 150 mg/kg, after 21 days, p<0.01): prevented significantly the increase of weight of the epididymal fat
- body weight compared to ND mice ([4]; highest dose (150 mg/kg), high fat diet): decreased body weight compared to mice fed the standard chow
- expression of FABP4/ap2, increase (FABP4/ap2): 1.3-1.4 times
- Increase (x times) in expression of FABP4/ap2 (FABP4/ap2; [6]): 1.4 x times
- percentage change in fat composition relative to baseline (DEXA) ([5]; 100 mg/kg twice daily oral, HFHS ad libitum, p<0.01): significant reduction in percentage fat
- weight of white adipose tissues compared with normal chow animals ([5]; 100 mg/kg twice daily): the same as untreated animals receiving normal chow
- weight of white adipose tissue (epididymal, inguinal and retroperitoneal) ([5]; 100 mg/kg twice daily, vs pair fed untreated and HFHS controls): significant reduction in the weight of these tissues
- expression of hormone sensitive lipase (HSL), increase (HSL): 1.3-1.4 times
- Increase (x times) in expression of HSL (HSL; [6]): 1.3 x times
- body weight (obese mice; 100 mg/kg orally twice daily, 21 days, vs water control): significant reduction of body weight compared to the water control group
- white fat mass (epididymal fat) (obese mice; 100 mg/kg, end of treatment): loss of the white fat mass (epididymal fat)

From US20100048545A1, “Compounds and Compositions for Use in the Prevention and Treatment of Disorders of Fat Metabolism and Obesity” (INNODIA INC., priority 2006, published 2010)
